Data taken from ChEMBL document CHEMBL1201862, “PubChem BioAssay data set” (2004).
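All cell lines were grown in 96-well plates and treated with compound for 48 hours. At the GI50, growth is halved.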 Active and inactive are the calls of the source. Cut-off read from the data, not from the text of the source: active = GI50 up to about 1.1 µM and inactive = higher.

What was measured:
Experiment in all cases: NCI anticancer screen, dose series, 48 h
[1] = system: DLD-1
[2] = system: DMS-273
[3] = system: XF498
[4] = system: DMS-114
[5] = system: M19-MEL
[6] = system: HOP-18
[7] = system: SNB-78
[8] = system: RXF 631
[9] = system: LXFL 529

SMILES | GI50 [1] | GI50 [2] | GI50 [3] | GI50 [4] | GI50 [5] | GI50 [6] | GI50 [7] | GI50 [8] | GI50 [9]
CCC(=O)OC1CCn2c1nc1c2C(=O)C(C)=C(NC(C)=O)C1=N (stereo unspecified) | 1.42 µM (inactive) | 1.67 µM (inactive) | 2.65 µM (inactive) | 1.5 µM (inactive) | 0.186 µM (active) | 1.8 µM (inactive) | 2.6 µM (inactive) | – | –
Cc1ccc(C)c(NC(=O)CCc2n[nH]c(=S)o2)c1 | > 100 µM (inactive) | > 100 µM (inactive) | > 100 µM (inactive) | > 100 µM (inactive) | > 100 µM (inactive) | > 100 µM (inactive) | > 100 µM (inactive) | > 100 µM (inactive) | > 100 µM (inactive)
CCOC(OCC)c1ccc(/C=C/c2cc(OC)c(OC)c(OC)c2)cc1 | 16.1 µM (inactive) | 17.6 µM (inactive) | – | 20.7 µM (inactive) | 19.9 µM (inactive) | 61.4 µM (inactive) | 27 µM (inactive) | 20 µM (inactive) | 16.1 µM (inactive)
Nc1nc2c(c(=O)[nH]1)NC(CO)CN2 (stereo unspecified) | > 100 µM (inactive) | > 100 µM (inactive) | 84.9 µM (inactive) | 66.8 µM (inactive) | 63.2 µM (inactive) | > 100 µM (inactive) | – | – | –
Nc1nc(Cl)cc(NCCCCCNc2cc(Cl)nc(N)n2)n1 | > 100 µM (inactive) | > 100 µM (inactive) | – | – | – | > 100 µM (inactive) | 31.3 µM (inactive) | > 100 µM (inactive) | 26.9 µM (inactive)
Cn1cnc([N+](=O)[O-])c1Sc1nccn1-c1cccc2ccccc12 | 24.2 µM (inactive) | 25.2 µM (inactive) | 16.6 µM (inactive) | 22 µM (inactive) | 25.7 µM (inactive) | 2.52 µM (inactive) | 24.7 µM (inactive) | 22.3 µM (inactive) | 18.5 µM (inactive)
C=C(COC(C)=O)CC(/C=C(\C)CC/C=C(\C)CO)OC(C)=O (stereo unspecified) | > 100 µM (inactive) | > 100 µM (inactive) | > 100 µM (inactive) | – | > 100 µM (inactive) | – | > 100 µM (inactive) | > 100 µM (inactive) | > 100 µM (inactive)
COc1cc2c(c(OC)c1)C(=O)C(=O)C(CC1(C)OCCCO1)=C2 | 2.93 µM (inactive) | 13.6 µM (inactive) | 12.8 µM (inactive) | 3.59 µM (inactive) | 2.32 µM (inactive) | 10.4 µM (inactive) | 9.95 µM (inactive) | 17.4 µM (inactive) | 4.51 µM (inactive)
O=C(/C=C/c1ccc([N+](=O)[O-])o1)N1CCN(Cc2ccccc2)CC1 | 5.96 µM (inactive) | 9.82 µM (inactive) | 16.7 µM (inactive) | 12.2 µM (inactive) | 6.43 µM (inactive) | 22.6 µM (inactive) | 17.1 µM (inactive) | – | 6.56 µM (inactive)
CCN(CC)C(=S)SCC(=O)Nc1nc2c(s1)CCCC2 | 94 µM (inactive) | 88.5 µM (inactive) | 18.7 µM (inactive) | 67.8 µM (inactive) | 52.7 µM (inactive) | – | > 100 µM (inactive) | – | 47.2 µM (inactive)
CC1Cc2c(N)nc(NN)nc2NC1=O (stereo unspecified) | > 100 µM (inactive) | > 100 µM (inactive) | 3.94 µM (inactive) | > 100 µM (inactive) | > 100 µM (inactive) | > 100 µM (inactive) | – | – | –
O=C1CC[C@@H](S(=O)(=O)c2ccccc2)[C@H](/C=C/c2ccccc2)O1 | – | – | < 0.01 µM (active) | > 100 µM (inactive) | > 100 µM (inactive) | > 100 µM (inactive) | – | – | > 100 µM (inactive)
O=C(O)C1=NN=C(C(=O)O)NN1 | > 100 µM (inactive) | > 100 µM (inactive) | – | – | > 100 µM (inactive) | > 100 µM (inactive) | > 100 µM (inactive) | – | > 100 µM (inactive)
Nc1nnc(NC(=O)C2=NS(=O)(=O)c3cc(S(N)(=O)=O)c(Cl)cc3N2)[nH]1 | > 100 µM (inactive) | – | > 100 µM (inactive) | > 100 µM (inactive) | > 100 µM (inactive) | > 100 µM (inactive) | > 100 µM (inactive) | – | > 100 µM (inactive)
Cn1cc2ccccc2c1-c1nc(F)nc(OCC(=O)[C@H]2CCC3[C@@H]4CCC5=CC(=O)CC[C@]5(C)C4[C@@H](O)C[C@@]32C)n1 (stereo partly specified) | 8.89 µM (inactive) | 15.6 µM (inactive) | 8.65 µM (inactive) | 7.52 µM (inactive) | 4.34 µM (inactive) | 15.5 µM (inactive) | 13.2 µM (inactive) | 2.33 µM (inactive) | 3.72 µM (inactive)
COC(=O)c1c2cccccc-2c(Cc2c3cccccc-3c(C(=O)OC)c2O)c1O | > 100 µM (inactive) | > 100 µM (inactive) | > 100 µM (inactive) | > 100 µM (inactive) | > 100 µM (inactive) | > 100 µM (inactive) | > 100 µM (inactive) | – | –
CC[N+](C)(CC)CC(C)(C)C(=O)/C=C/c1ccc(/C=C/C(=O)C(C)(C)C[N+](C)(CC)CC)cc1 | > 100 µM (inactive) | > 100 µM (inactive) | – | > 100 µM (inactive) | > 100 µM (inactive) | – | > 100 µM (inactive) | > 100 µM (inactive) | > 100 µM (inactive)
COc1ccc2[nH]c3c4c(cc(-c5ccccc5)c3c2c1)C(=O)N(c1ccccc1)C4=O | > 53 µM (inactive) | 2.07 µM (inactive) | – | > 47.8 µM (inactive) | 30.5 µM (inactive) | 24.7 µM (inactive) | 27.2 µM (inactive) | – | 18.1 µM (inactive)
COc1cccc(NC(=O)CC(=O)N2N=C(n3ccc4ccccc43)CC2c2ccccc2)c1 (stereo unspecified) | > 100 µM (inactive) | > 100 µM (inactive) | – | > 100 µM (inactive) | > 100 µM (inactive) | > 100 µM (inactive) | > 100 µM (inactive) | – | > 100 µM (inactive)
CC(=O)N1CC(=O)NC1=S | > 100 µM (inactive) | > 100 µM (inactive) | > 100 µM (inactive) | > 100 µM (inactive) | > 100 µM (inactive) | – | > 100 µM (inactive) | – | > 100 µM (inactive)
NC(=O)c1ccccc1NC(=O)C(=O)C(C(=O)c1ccc(Cl)c(Cl)c1)C1OC(=O)c2ccccc21 (stereo unspecified) | 43.3 µM (inactive) | 36.2 µM (inactive) | > 100 µM (inactive) | – | – | 33.5 µM (inactive) | 39.2 µM (inactive) | – | 29.9 µM (inactive)
CN(C)CCS/C(=N\c1ccccc1)N1C=COC=C1 | 17.4 µM (inactive) | 18.4 µM (inactive) | 31.2 µM (inactive) | 14.6 µM (inactive) | 17.5 µM (inactive) | 59.8 µM (inactive) | 26.9 µM (inactive) | – | 16.4 µM (inactive)
COc1ccc2occ(CCC(=O)O)c2c1 | > 100 µM (inactive) | > 100 µM (inactive) | > 100 µM (inactive) | > 100 µM (inactive) | > 100 µM (inactive) | > 100 µM (inactive) | > 100 µM (inactive) | – | > 100 µM (inactive)
